Test results taken from patent US9029389B2 (Institut Pasteur Korea, priority 2011, dated 2015).

What was measured:
Human 5-lipoxygenase = target: T1, Human 5-lipoxygenase (Homo sapiens, UniProt P09917); experiment: Activity of compounds against 5-LO enzyme (LTB4 measurement and/or fluorescence method); assay type: biochemical; conditions: for inhibition at 10 µM: 5-LO, single concentration of 10 uM in duplicate; for IC50: 6 or 11 point dose response in duplicate
T1 construct: purchased Cayman 60402; host or cells: insect cells
T1 sequence (P09917 1-674): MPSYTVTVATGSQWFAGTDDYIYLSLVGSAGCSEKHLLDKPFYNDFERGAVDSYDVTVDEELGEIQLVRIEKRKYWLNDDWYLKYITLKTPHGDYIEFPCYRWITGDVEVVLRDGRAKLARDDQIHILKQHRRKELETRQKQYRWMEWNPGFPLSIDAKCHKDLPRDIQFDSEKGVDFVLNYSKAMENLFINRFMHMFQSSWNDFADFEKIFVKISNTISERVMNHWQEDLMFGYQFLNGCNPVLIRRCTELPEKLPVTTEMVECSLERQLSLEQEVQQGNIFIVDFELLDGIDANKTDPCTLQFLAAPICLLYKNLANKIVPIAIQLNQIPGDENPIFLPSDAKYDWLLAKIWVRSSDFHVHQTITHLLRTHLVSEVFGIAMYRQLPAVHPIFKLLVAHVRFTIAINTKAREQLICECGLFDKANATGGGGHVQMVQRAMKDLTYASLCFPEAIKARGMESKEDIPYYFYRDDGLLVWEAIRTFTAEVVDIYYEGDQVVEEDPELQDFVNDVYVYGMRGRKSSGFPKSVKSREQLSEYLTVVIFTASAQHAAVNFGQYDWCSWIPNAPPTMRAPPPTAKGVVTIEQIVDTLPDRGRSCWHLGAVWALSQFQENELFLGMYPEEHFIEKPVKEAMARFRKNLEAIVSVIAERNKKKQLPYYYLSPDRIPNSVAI
Procedure, shortened: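 Two read-outs: LTB4 measured by EIA and/or LC/MS/MS with LTB4-d4 standard after 15 min RT compound preincubation with insect-cell 5-LO and a 5 min 37 °C reaction on 3 uM arachidonic acid (0.1 mM ATP, pH 7.4). The room-temperature fluorescence format used 20 uM H2DCFDA, 100 uM ATP, 3 uM arachidonic acid, 5 min; IC50 from 6/11-point curves.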

SMILES	inhibition at 10 µM (Human 5-lipoxygenase) [%]	melting point	IC50 (Human 5-lipoxygenase) [µM]
CCc1nc2ccc(Cl)cn2c1C(=O)NCc1nc2cc(Cl)ccc2n1C [compound 368, 6-chloro-N-((5-chloro-1-methyl-1H-benzo[d]imidazol-2-yl)methyl)-2-ethylimidazo[1,2-a]pyridine-3-carboxamide]	< 40	> 220 °C	–
CCc1nc2ccccn2c1C(=O)NCc1ccc(C2CCOCC2)cc1 [compound 362, 2-ethyl-N-(4-(tetrahydro-2H-pyran-4-yl)benzyl)imidazo[1,2-a]pyridine-3-carboxamide]	< 40	> 133.7 °C (dec.)	–
CCc1nc2ccc(Cl)cn2c1C(=O)NCc1nc2ccc(Cl)cc2n1C [compound 367, 6-chloro-N-((6-chloro-1-methyl-1H-benzo[d]imidazol-2-yl)methyl)-2-ethylimidazo[1,2-a]pyridine-3-carboxamide]	< 40	> 220 °C	–
CCc1nc2ccc(Cl)cn2c1C(=O)NCc1ccc2oc(C3CCCCC3)nc2c1 [compound 298, 6-Chloro-N-((2-cyclohexylbenzo[d]oxazol-5-yl)methyl)-2-ethylimidazo[1,2-a]pyridine-3-carboxamide]	> 69	169.7 °C	1 to 20
CCc1nc2ccc(Cl)cn2c1C(=O)NCc1ccc(N2CCC(O)(c3ccc(F)cc3)CC2)cc1 [compound 306, 6-Chloro-2-ethyl-N-(4-(4-(4-fluorophenyl)-4-hydroxypiperidin-1-yl)benzyl)imidazo[1,2-a]pyridine-3-carboxamide]	40 to 69	173.5 °C	–
CCc1nc2c(OC(F)F)cccn2c1C(=O)NCc1ccc(N2CCOCC2)cc1 [compound 279, 8-(Difluoromethoxy)-2-ethyl-N-(4-morpholinobenzyl)imidazo[1,2-a]pyridine-3-carboxamide]	< 40	163 °C	–
CCNC(=O)c1c(CC)nc2ccc(Cl)cn12 [compound 238, 6-Chloro-N,2-diethylimidazo[1,2-a]pyridine-3-carboxamide]	< 40	176.7 °C	–
CCc1nc2cc(Cl)c(Cl)cn2c1C(=O)NCc1ccc(OC(F)(F)F)cc1 [compound 178, 6,7-Dichloro-2-ethyl-N-(4-(trifluoromethoxy)benzyl)imidazo[1,2-a]pyridine-3-carboxamide]	< 40	–	–
CCc1nc2ccc(Cl)cn2c1C(=O)NCc1ccc(N2CCC(C(=O)Cc3ccc(F)cc3)CC2)cc1 [compound 325, 6-chloro-2-ethyl-N-(4-(4-(2-(4-fluorophenyl)acetyl)piperidin-1-yl)benzyl)imidazo[1,2-a]pyridine-3-carboxamide]	< 40	–	–
Cc1nc2ccccn2c1C(=O)NCc1ccc(Oc2ccccc2)cc1 [compound 6, 2-Methyl-N-(4-phenoxybenzyl)imidazo[1,2-a]pyridine-3-carboxamide]	< 40	–	–
CCc1nc2ccc(Cl)cn2c1C(=O)N1CC[C@H](OCc2ccc(OC(F)(F)F)cc2)C1 [compound 390, (S)-(6-chloro-2-ethylimidazo[1,2-a]pyridin-3-yl)(3-(4-(trifluoromethoxy)benzyloxy)-pyrrolidin-1-yl)methanone]	–	–	1 to 20
CCc1nc2ccc(Cl)cn2c1C(=O)NCc1ccc2c(ccn2C)c1 [compound 67]	< 40	–	–
CCc1nc2ccc(Cl)cn2c1C(=O)NCc1ccc2oc(-c3ccc(F)cc3)nc2c1 [compound 258, 6-Chloro-2-ethyl-N-((2-(4-fluorophenyl)benzo[d]oxazol-5-yl)methyl)imidazo[1,2-a]pyridine-3-carboxamide]	< 40	–	–
CCc1nc2cccnn2c1C(=O)N1CCC(OCc2ccc(OC(F)(F)F)cc2)CC1 [compound 387, (2-Ethylimidazo[1,2-b]pyridazin-3-yl)(4-((4-(trifluoromethoxy)benzyl)oxy)piperidin-1-yl)methanone]	–	–	> 20
CCc1nc2cc(Cl)ccn2c1C(=O)NCc1ccc(-c2ccc(C)cc2)cc1 [compound 87, 7-Chloro-2-ethyl-N-((4′-methylbiphenyl-4-yl)methyl)imidazo[1,2-a]pyridine-3-carboxamide]	40 to 69	–	–
Cc1nc2ccc(C#N)cn2c1C(=O)NCc1ccccc1 [compound 30, N-Benzyl-6-cyano-2-methylimidazo[1,2-a]pyridine-3-carboxamide]	< 40	–	–
CCc1nc2ccc(Cl)cn2c1C(=O)NCc1ccc(N2CCC(C)(O)CC2)cc1 [compound 321, 6-chloro-2-ethyl-N-(4-(4-hydroxy-4-methylpiperidin-1-yl)benzyl)imidazo[1,2-a]pyridine-3-carboxamide]	< 40	–	–
CCc1nc2cc(Cl)ccn2c1C(=O)NCc1ccc(-c2ccccc2C#N)cc1 [compound 106, 7-Chloro-N-((2′-cyanobiphenyl-4-yl)methyl)-2-ethylimidazo[1,2-a]pyridine-3-carboxamide]	40 to 69	–	–
Cc1ccc2nc(C)c(C(=O)NCc3ccccc3)n2c1 [compound 33, N-Benzyl-2,6-dimethylimidazo[1,2-a]pyridine-3-carboxamide]	< 40	–	–
CCc1nc2ncccn2c1C(=O)N1CCC(OCc2ccc(OC(F)(F)F)cc2)CC1 [compound 385, (2-Ethylimidazo[1,2-a]pyrimidin-3-yl)(4-((4-(trifluoromethoxy)benzyl)oxy)piperidin-1-yl)methanone]	–	–	> 20
CCc1nc2ccc(Cl)cn2c1C(=O)NCc1ccc(N2CCC(C(=O)O)CC2)cc1 [compound 307, 1-(4-((6-Chloro-2-ethylimidazo[1,2-a]pyridine-3-carboxamido)methyl)phenyl)piperidine-4-carboxylic acid]	< 40	–	–
CCc1nc2ccc(F)cn2c1C(=O)NCc1ccc(OCc2ccc(OC(F)(F)F)cc2)cc1 [compound 205, 2-Ethyl-6-fluoro-N-(4-(4-(trifluoromethoxy)benzyloxy)benzyl)imidazo[1,2-a]pyridine-3-carboxamide]	40 to 69	–	–
CCc1nc2cc(Cl)ccn2c1C(=O)NCc1ccc(N2CC3CCCCC3C2)cc1 (stereo not drawn) [compound 216, N-(4-(1H-isoindol-2(3H,3aH,4H,5H,6H,7H,7aH)-yl)benzyl)-7-chloro-2-ethylimidazo[1,2-a]pyridine-3-carboxamide]	40 to 69	–	–
CCc1nc2ccc(Cl)cn2c1C(=O)NCc1ccc(-c2ccc(C#N)cc2)cc1 [compound 97, 6-Chloro-N-((4′-cyanobiphenyl-4-yl)methyl)-2-ethylimidazo[1,2-a]pyridine-3-carboxamide]	< 40	–	–
CCc1nc2cc(Cl)ccn2c1C(=O)NCc1ccc(-c2ccc(Cl)cc2)cc1 [compound 83, 7-Chloro-N-((4′-chlorobiphenyl-4-yl)methyl)-2-ethyl-2-ethlimidazo[1,2-a]pyridine-3-carboxamide]	40 to 69	–	–
CCc1nc2ccc(Cl)cn2c1CNCc1ccc(N2CCC(OCc3ccccc3)CC2)cc1 [compound 341, N-(4-(4-(benzyloxy)piperidin-1-yl)benzyl)-1-(6-chloro-2-ethylimidazo[1,2-a]pyridin-3-yl)methanamine]	40 to 69	–	–
CCc1nc2ccc(Cl)cn2c1C(=O)NCc1ccc(N2CCN(Cc3ccc(F)cc3)CC2)cc1 [compound 130, 6-Chloro-2-ethyl-N-(4-(4-(4-fluorobenzyl)piperazin-1-yl)benzyl)imidazo[1,2-a]pyridine-3-carboxamide]	> 69	–	1 to 20
